Values of other authors in patent US6953823B2, “Elastomeric insulating composition for a solid propellant rocket motor” (Chung Shan Institute of Science and Technology, priority 2003, dated 2005).

System: rats

Compound: [OH-].[OH-].[OH-].[OH-].[OH-].[OH-].[Sn+4].[Zn+2] [Zinc Hydroxystannate, zinc hydroxystannate]
- Oral Toxicity (LD50, rats): >5 gr/kg
